{"source": "patent US12643913B2", "about": "“Mcl-1 inhibitor formulations” (AMGEN INC., priority 2020, dated 2026)", "key": {"[1]": {"assay": "Solubility of AMG 397 in common spray-drying solvents", "format": "physicochemical", "description": "Solvent selection: The solubility of AMG 397 was measured in solvents commonly used for spray drying. […] Based on the solubility data, tetrahydrofuran (THF) was selected as a solvent for the initial spray drying-work and further work was conducted in DCM.\nAMG 397 is known to form solvates with many solvents. The formation of a solvate can lead to precipitation from solution due to the lower solubility in the solvent. Care must be taken to select a solvent and concentration of AMG 397 which can be maintained for the duration of the spray-drying process. The solubility of AMG 397 was highest in DCM where concentrations >100 mg/mL were achieved. Both DCM and THF are ICH class II solvents with residual solvent limits of 600 and 720 ppm, respectively. Therefore, the residual solvent levels must be removed to below these levels during the secondary drying process."}, "[2]": {"assay": "Stability of AMG 397 in THF and DCM solution at 1 mg/mL, room temperature, amber and clear vials (peak area % at 280 nm)", "format": "physicochemical", "settings": "for Peak Area % (280 nm), AMG 397 peak RRT 1.00: 1 mg/mL, room temperature", "description": "The stability of AMG 397 was assessed in both THF and DCM over 24 hours to cover the processing time in the solvent. The stability was assessed in both amber and clear glass vials to assess the impact of light on stability.\nLight had little impact on degradation up to 72 hours in DCM."}}, "note": "Read-outs that look alike come from different tables or passages of the source.", "data": [{"smiles": "CO[C@]1(CN2CCN3CCCC[C@@H]3C2)/C=C/C[C@H](C)[C@@H](C)S(=O)(=O)NC(=O)c2ccc3c(c2)N(C[C@@H]2CC[C@H]21)C[C@@]1(CCCc2cc(Cl)ccc21)CO3", "note": "[AMG 397, (1S,3′R,6′R,7′R,8′E,11'S,12′R)-6-chloro-7′-methoxy-11′,12′-dinethyl-7′-((9aR)-octahydro-2H-pyrido[1,2-a]pyrazin-2-ylmethyl)-3,4-dihydro-2H,15′H-spiro[naphthalene-1,22′-[20]oxa[13]thia[1,14]diazatetracyclo [14.7.2.0^3,6.0^19,24]pentacosa[8,16,18,24]tetraen]-15′-one 13′,13′-dioxide]", "values": [{"measurement": "solubility", "setting": "[1]; Dichloromethane (DCM)", "value": "> 100000", "unit": "µg/mL"}, {"measurement": "solubility", "setting": "[1]; Tetrahydrofuran (THF)", "value": 33500, "unit": "µg/mL"}, {"measurement": "solubility", "setting": "[1]; acetone, organic solvent or mixture, read-out: Solubility", "value": 370, "unit": "µg/mL"}, {"measurement": "solubility", "setting": "[1]; ethanol, organic solvent or mixture, read-out: Solubility", "value": 150, "unit": "µg/mL"}, {"measurement": "solubility", "setting": "[1]; ethyl acetate, organic solvent or mixture, read-out: Solubility", "value": 750, "unit": "µg/mL"}, {"measurement": "solubility", "setting": "[1]; methanol, organic solvent or mixture, read-out: Solubility", "value": 90, "unit": "µg/mL"}, {"measurement": "solubility at 24 h", "setting": "[1]; organic solvent or mixture, thermodynamic from solid, THF, after 24 hours, extended stirring at room temperature, solid precipitated, read-out: Final solubility in THF", "value": 33500, "unit": "µg/mL"}, {"measurement": "solubility", "setting": "[1]; organic solvent or mixture, thermodynamic from solid, THF, before extended stirring, read-out: Solubility in THF, initially", "value": "> 50000", "unit": "µg/mL"}, {"measurement": "solubility", "setting": "[1]; organic solvent or mixture, DCM, concentrations achieved, read-out: Solubility in DCM", "value": "> 100000", "unit": "µg/mL"}, {"measurement": "Solubility in THF in the presence of water", "setting": "[1]; various ratios of THF-water", "value": "drops significantly"}, {"measurement": "solubility", "setting": "[1]; water, read-out: Solubility", "value": 7, "unit": "µg/mL"}, {"measurement": "Peak Area % (280 nm), AMG 397 peak RRT 1.00", "setting": "[2]; DCM, 2 Hrs, Amber", "value": 99.49, "unit": "%"}, {"measurement": "Peak Area % (280 nm), AMG 397 peak RRT 1.00", "setting": "[2]; DCM, 2 Hrs, Clear", "value": 99.47, "unit": "%"}, {"measurement": "Peak Area % (280 nm), AMG 397 peak RRT 1.00", "setting": "[2]; DCM, 4 Hrs, Amber", "value": 99.44, "unit": "%"}, {"measurement": "Peak Area % (280 nm), AMG 397 peak RRT 1.00", "setting": "[2]; DCM, 4 Hrs, Amber (second 4 Hrs column)", "value": 99.52, "unit": "%"}, {"measurement": "Peak Area % (280 nm), AMG 397 peak RRT 1.00", "setting": "[2]; DCM, 24 Hrs, Amber", "value": 99.44, "unit": "%"}, {"measurement": "Peak Area % (280 nm), AMG 397 peak RRT 1.00", "setting": "[2]; DCM, 24 Hrs, Clear", "value": 99.48, "unit": "%"}, {"measurement": "Peak Area % (280 nm), AMG 397 peak RRT 1.00", "setting": "[2]; DCM, 72 Hrs, Amber", "value": 99.13, "unit": "%"}, {"measurement": "Peak Area % (280 nm), AMG 397 peak RRT 1.00", "setting": "[2]; DCM, 72 Hrs, Clear", "value": 98.78, "unit": "%"}, {"measurement": "Peak Area % (280 nm), AMG 397 peak RRT 1.00", "setting": "[2]; DCM, Initial", "value": 99.52, "unit": "%"}, {"measurement": "Stability in DCM", "setting": "[2]; DCM, up to 24 hours at room temperature", "value": "stable"}, {"measurement": "Peak Area % (280 nm), AMG 397 peak RRT 1.00", "setting": "[2]; THF, 2 Hrs, Amber", "value": 99.41, "unit": "%"}, {"measurement": "Peak Area % (280 nm), AMG 397 peak RRT 1.00", "setting": "[2]; THF, 2 Hrs, Clear", "value": 98.98, "unit": "%"}, {"measurement": "Peak Area % (280 nm), AMG 397 peak RRT 1.00", "setting": "[2]; THF, 4 Hrs, Amber", "value": 99.51, "unit": "%"}, {"measurement": "Peak Area % (280 nm), AMG 397 peak RRT 1.00", "setting": "[2]; THF, 4 Hrs, Clear", "value": 97.51, "unit": "%"}, {"measurement": "Peak Area % (280 nm), AMG 397 peak RRT 1.00", "setting": "[2]; THF, 24 Hrs, Amber", "value": 98.62, "unit": "%"}, {"measurement": "Peak Area % (280 nm), AMG 397 peak RRT 1.00", "setting": "[2]; THF, 24 Hrs, Clear", "value": 92.68, "unit": "%"}, {"measurement": "Peak Area % (280 nm), AMG 397 peak RRT 1.00", "setting": "[2]; THF, 72 Hrs, Amber", "value": 97.20, "unit": "%"}, {"measurement": "Peak Area % (280 nm), AMG 397 peak RRT 1.00", "setting": "[2]; THF, 72 Hrs, Clear", "value": 90.59, "unit": "%"}, {"measurement": "Peak Area % (280 nm), AMG 397 peak RRT 1.00", "setting": "[2]; THF, Initial", "value": 99.52, "unit": "%"}, {"measurement": "Stability in THF", "setting": "[2]; THF, presence of light accelerated degradation", "value": "unstable"}]}]}
